From patent publication US8883963B2 (Cadila Healthcare Limited, priority 2007, dated 2014)
Non-standard residues stand in square brackets, D forms with d. Residues, ends and D or L forms follow the SMILES beside them. ξ: configuration not given here. *: point of attachment. ξBip(2'-Et-4'-OMe) = CCc1cc(OC)ccc1-c1ccc(CC(N)C(=O)O)cc1; ξαMePhe(2-F) = CC(N)(Cc1ccccc1F)C(=O)O; ξhhPhe = NC(CCCc1ccccc1)C(=O)O; Aib = CC(C)(N)C(=O)O; Moc = COC(=O)*

Key:
[1] = tested on: C57BL/6J mice (mild hyperglycemic); assay: In vivo glucose reduction, acute single dose 120-min time-course, i.p. route; set-up: species or system mouse; unit not given here; conditions: male C57BL/6J mice
Procedure: All the animal experiments were carried out according to the internationally valid guidelines following approval by the ‘Zydus Research Center animal ethical committee’.
Two days prior to the study, the animals were randomised and divided into 5 groups (n=6), based upon their fed glucose levels. On the day of experiment, food was withdrawn from all the cages, water was given ad-libitum and were kept for overnight fasting. Vehicle (normal saline)/test/standard compounds were administered intraperitoneally (i.p.) or orally, on a body weight basis.
Blood samples were centrifuged and the separated serum was immediately subjected for the glucose estimation. Serum for insulin estimation was stored at −70° C. until used for the insulin estimation. The glucose estimation was carried out with DPEC-GOD/POD method (Ranbaxy Fine Chemicals Limited, Diagnostic division, India), using Spectramax-190, in 96-microwell plate reader (Molecular devices Corporation, Sunnyvale, Calif.). […] The AUC and BCAUC obtained from graphs were analyzed for one way ANOVA, followed by Dunnett's post test, using Graph Pad prism software. Furthermore, the insulin estimation was carried out using rat/mouse insulin ELISA kit (Linco research, Missouri USA).

[2] = Stability in liver microsomes; type: in vitro ADME; conditions: 2 μM peptidomimetic, human liver microsomes, 37° C.; for half-life at 2 μM: pH 7.8, read-out: half-life (t1/2) when incubated with liver microsomes
Procedure: (§1) Reactions were terminated by the addition of TFA/H2O (15 mL, 10% (v/v)). […] The column was equilibrated with TFA/H20, at a flow rate of 1 mL/min.

[3] = biological target: DPP IV (Homo sapiens, UniProt P27487); assay: Stability against DPP IV enzyme; type: in vitro ADME; conditions: 37° C.; for % degradation of peptidomimetics in 24 h when incubated with DPP-IV enzyme: 2 μM peptidomimetic; for half-life at 2 μM: DPP IV enzyme, pH 7.8, 2 μM peptidomimetic, read-out: half-life (t1/2) when incubated with DPP-IV enzyme
DPP IV, sequence (P27487 whole entry, species assumed): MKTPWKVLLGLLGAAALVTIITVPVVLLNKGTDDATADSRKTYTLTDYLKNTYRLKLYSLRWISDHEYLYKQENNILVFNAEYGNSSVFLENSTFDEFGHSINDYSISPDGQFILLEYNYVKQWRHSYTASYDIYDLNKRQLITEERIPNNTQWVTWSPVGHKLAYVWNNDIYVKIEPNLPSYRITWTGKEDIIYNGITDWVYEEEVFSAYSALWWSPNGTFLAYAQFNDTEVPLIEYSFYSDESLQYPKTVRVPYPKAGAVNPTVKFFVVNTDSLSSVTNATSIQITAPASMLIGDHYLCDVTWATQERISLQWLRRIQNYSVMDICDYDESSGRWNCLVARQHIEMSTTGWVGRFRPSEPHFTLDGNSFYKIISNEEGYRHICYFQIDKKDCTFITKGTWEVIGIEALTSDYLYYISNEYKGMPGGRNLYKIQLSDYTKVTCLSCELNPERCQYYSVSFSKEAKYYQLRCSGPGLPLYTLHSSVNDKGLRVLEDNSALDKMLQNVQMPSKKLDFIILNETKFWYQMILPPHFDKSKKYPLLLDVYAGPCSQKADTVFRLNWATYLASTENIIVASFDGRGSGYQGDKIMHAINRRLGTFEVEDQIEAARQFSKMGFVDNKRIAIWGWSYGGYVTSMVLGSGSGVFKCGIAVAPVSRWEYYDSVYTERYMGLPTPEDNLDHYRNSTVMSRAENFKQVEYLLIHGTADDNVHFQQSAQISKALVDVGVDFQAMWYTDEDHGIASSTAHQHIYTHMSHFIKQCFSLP
Procedure: as §1

[4] = Stability in human plasma; type: in vitro ADME; conditions: 2 μM peptidomimetic, pooled human plasma, 37° C.; for half-life at 2 μM: pH 7.8, read-out: half-life (t1/2) when incubated with human plasma
Procedure: as §1

[5] = biological target: T1, Human GLP-1 receptor (Homo sapiens, UniProt P43220); assay: In vitro Human GLP-1 R agonist activity (cyclic AMP determination) in CHO/human GLP1R cells; type: cell-based
T1 construct: The full-length cDNA was cloned in pcDNA3.1(+); expressed in transfected cells
T1 sequence (P43220 24-463): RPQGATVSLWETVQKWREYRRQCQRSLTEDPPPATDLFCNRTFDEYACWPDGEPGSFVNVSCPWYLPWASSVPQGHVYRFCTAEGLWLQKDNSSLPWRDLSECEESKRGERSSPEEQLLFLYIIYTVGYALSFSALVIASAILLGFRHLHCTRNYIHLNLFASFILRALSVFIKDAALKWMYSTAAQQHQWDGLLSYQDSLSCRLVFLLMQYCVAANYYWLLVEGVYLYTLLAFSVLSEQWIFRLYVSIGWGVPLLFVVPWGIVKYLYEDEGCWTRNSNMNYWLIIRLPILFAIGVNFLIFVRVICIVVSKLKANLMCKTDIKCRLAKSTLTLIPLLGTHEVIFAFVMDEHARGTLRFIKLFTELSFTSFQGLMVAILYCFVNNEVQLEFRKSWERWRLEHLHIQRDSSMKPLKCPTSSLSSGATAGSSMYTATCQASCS

[6] = Stability in simulated intestinal fluid; type: in vitro ADME; conditions: 2 μM peptidomimetic, simulated intestinal fluid pH 7.5, 37° C.; for half-life at 2 μM: read-out: half-life (t1/2) when incubated with simulated intestinal fluid
Procedure: as §1

[7] = tested on: RIN5F (Rat Insulinoma) cells; assay: In vitro glucose-dependent insulin secretion (RIN5F cell assay screening protocol); type: cell-based; conditions: 16.7 mM glucose load
[8] = Stability in simulated gastric fluid; type: in vitro ADME; conditions: 2 μM peptidomimetic, simulated gastric fluid pH 1.5, 37° C.; for half-life at 2 μM: read-out: half-life (t1/2) when incubated with simulated gastric fluid
Procedure: as §1

[9] = biological target: T2, human glucagon receptor (Homo sapiens, UniProt P47871); assay: In vitro human glucagon antagonist activity (inhibition of cAMP production) in CHO/human glucagon R cells; type: cell-based; conditions: with saturated concentration of glucagon peptide
T2 construct: The full-length cDNA was cloned in pcDNA3.1 (Invitrogen); expressed in transfected cells
T2 sequence (P47871 26-477): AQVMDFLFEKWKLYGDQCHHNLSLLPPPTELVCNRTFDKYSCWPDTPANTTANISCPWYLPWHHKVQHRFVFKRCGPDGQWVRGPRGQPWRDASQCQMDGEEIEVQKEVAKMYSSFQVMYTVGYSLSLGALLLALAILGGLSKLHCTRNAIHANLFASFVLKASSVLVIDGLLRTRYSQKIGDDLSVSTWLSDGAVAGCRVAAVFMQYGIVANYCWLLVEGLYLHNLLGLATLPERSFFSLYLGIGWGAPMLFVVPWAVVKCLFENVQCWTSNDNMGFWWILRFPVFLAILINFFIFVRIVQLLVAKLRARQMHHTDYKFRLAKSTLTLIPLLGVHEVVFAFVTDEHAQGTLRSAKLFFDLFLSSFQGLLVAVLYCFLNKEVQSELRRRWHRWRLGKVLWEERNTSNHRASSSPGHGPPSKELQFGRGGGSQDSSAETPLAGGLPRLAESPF

| Structure (SMILES) | % degradation of peptidomimetics in 24 h when incubated with liver microsomes [2] | % degradation of peptidomimetics in 24 h when incubated with DPP-IV enzyme [3] | half-life at 2 μM [3] | % degradation of peptidomimetics in 24 h when incubated with human plasma [4] | half-life at 2 μM [4] | Human GLP-1 R activity (cAMP release), % activity with respect to control ([5]; 1 nM test compound) | Human GLP-1 R activity (cAMP release), % activity with respect to control ([5]; 10 nM test compound) | Human GLP-1 R activity (cAMP release), % activity with respect to control ([5]; 100 nM test compound) | Human GLP-1 R activity (cAMP release), % activity with respect to control ([5]; 1 μM test compound) | Human GLP-1 R activity (cAMP release), % activity with respect to control ([5]; 10 μM test compound) | % degradation of peptidomimetics in 24 h when incubated with simulated intestinal fluid [6] | half-life at 2 μM [6] | Insulin secretion ([7]; 0.1 nM test compd.) | Insulin secretion ([7]; 1 nM test compd.) | Insulin secretion ([7]; 10 nM test compd.) | % degradation of peptidomimetics in 24 h when incubated with simulated gastric fluid [8] | half-life at 2 μM [8] | Human Glucagon receptor antagonistic activity shown as inhibition of cAMP production of Glucagon peptide ([9]; 1 nM test compound) | Human Glucagon receptor antagonistic activity shown as inhibition of cAMP production of Glucagon peptide ([9]; 10 nM test compound) | Human Glucagon receptor antagonistic activity shown as inhibition of cAMP production of Glucagon peptide ([9]; 100 nM test compound) | other results |
| --- | --- | --- | --- | --- | --- | --- | --- | --- | --- | --- | --- | --- | --- | --- | --- | --- | --- | --- | --- | --- | --- |
| CCc1cc(OC)ccc1-c1ccc(CC(NC(=O)[C@H](CC(=O)O)NC(=O)[C@H](CO)NC(=O)[C@@H](NC(=O)C(C)(Cc2ccccc2F)NC(=O)[C@@H](NC(=O)CNC(=O)[C@H](CCC(N)=O)NC(=O)C(C)(C)NC(=O)[C@H](Cc2c[nH]cn2)NC(=O)OC)[C@@H](C)O)[C@@H](C)O)C(=O)NC(CCCc2ccccc2)C(N)=O)cc1 (stereo partly drawn) [Seq. ID. 94] (Moc-H[Aib]QGT[ξαMePhe(2-F)]TSD[ξBip(2'-Et-4'-OMe)][ξhhPhe]-NH2) |  |  |  |  |  |  |  |  |  |  |  |  |  |  |  |  |  |  |  |  | blood glucose levels ([1]; 10 nM/kg i.p., 0 min): 182 ± 4.1; blood glucose levels ([1]; 10 nM/kg i.p., 30 min): 112 ± 3.1; blood glucose levels ([1]; 10 nM/kg i.p., 60 min): 113 ± 2.6; blood glucose levels ([1]; 10 nM/kg i.p., 120 min): 111 ± 1.8 |
| CCc1cc(OC)ccc1-c1ccc(CC(CNC(CCCc2ccccc2F)C(N)=O)NC[C@H](CC(=O)O)NC(=O)[C@H](CO)NC(=O)[C@@H](NC(=O)C(C)(Cc2ccccc2F)NC(=O)[C@@H](NC(=O)CNC(=O)[C@H](CCC(N)=O)NC(=O)C(C)(C)NC(=O)[C@H](Cc2c[nH]cn2)NC(=O)OC)[C@@H](C)O)[C@@H](C)O)cc1 (single isomer, unassigned) [Seq. ID. 196] |  |  |  |  |  |  |  |  |  |  |  |  |  |  |  |  |  |  |  |  | blood glucose levels ([1]; 50 nM/kg i.p., 0 min): 181 ± 2.5; blood glucose levels ([1]; 50 nM/kg i.p., 30 min): 111 ± 3.4; blood glucose levels ([1]; 50 nM/kg i.p., 60 min): 113 ± 3.1; blood glucose levels ([1]; 50 nM/kg i.p., 120 min): 110 ± 1.8 |
| CCc1cc(OC)ccc1-c1ccc(CC(CNC(CCCc2ccccc2)C(N)=O)NC[C@H](CC(=O)O)NC(=O)[C@H](CO)NC(=O)[C@@H](NC(=O)C(C)(Cc2ccccc2F)NC(=O)[C@@H](NC(=O)CNC(=O)[C@H](CCC(N)=O)NC(=O)C(C)(C)NC(=O)[C@H](Cc2c[nH]cn2)NC(=O)OC)[C@H](C)O)[C@H](C)O)cc1 (single isomer, unassigned) [Seq. ID. 198] |  |  |  |  |  |  |  |  |  |  |  |  |  |  |  |  |  |  |  |  | blood glucose levels ([1]; 50 nM/kg i.p., 0 min): 182 ± 4.1; blood glucose levels ([1]; 50 nM/kg i.p., 30 min): 112 ± 3.1; blood glucose levels ([1]; 50 nM/kg i.p., 60 min): 113 ± 2.6; blood glucose levels ([1]; 50 nM/kg i.p., 120 min): 111 ± 1.8 |
| CCc1cc(OC)ccc1-c1ccc(CC(NC(=O)[C@H](CC(=O)O)NC(=O)[C@H](CO)NC(=O)[C@@H](NC(=O)C(C)(Cc2ccccc2F)NC(=O)[C@@H](NC(=O)CNC(=O)C(CCC#N)NC(=O)C(C)(C)NC(=O)[C@H](Cc2c[nH]cn2)NC(=O)OC)[C@@H](C)O)[C@@H](C)O)C(=O)NC(CCCc2ccccc2)C(N)=O)cc1 (single isomer, unassigned) [compound 206] | 32% | 00% | > 24 h | 00% | > 24 h | 39 ± 0.12% | 80 ± 0.15% | 86 ± 0.18% | 95 ± 0.03% | 98 ± 0.09% | 00% | > 24 h | 12.1 ± 0.42 pg/µg/h | 14.6 ± 0.41 pg/µg/h | 27.8 ± 0.46 pg/µg/h | 00% | > 24 h | 0 pmol/ml/μg prt | 0 pmol/ml/μg prt | 0 pmol/ml/μg prt | half-life (t1/2) when incubated with liver microsomes [2]: (5) h; Human Glucagon receptor antagonistic activity shown as inhibition of cAMP production of Glucagon peptide ([9]; 1 μM test compound): 0 pmol/ml/μg prt; Human Glucagon receptor antagonistic activity shown as inhibition of cAMP production of Glucagon peptide ([9]; 10 μM test compound): 0 pmol/ml/μg prt |
| CCc1cc(OC)ccc1-c1ccc(CC(NC(=O)[C@H](CC(=O)O)NC(=O)[C@H](CO)NC(=O)[C@@H](NC(=O)[C@H](Cc2ccccc2)NC(=O)[C@@H](NC(=O)CNC(=O)C(CCC#N)NC(=O)C(C)(C)NC(=O)[C@@H](N)Cc2c[nH]cn2)[C@@H](C)O)[C@@H](C)O)C(=O)NC(CCCc2ccc(OC)cc2Cl)C(N)=O)cc1 (single isomer, unassigned) [compound 84] | 85% | 00% | > 24 h | 00% | > 24 h | 38 ± 0.11% | 77 ± 0.16% | 85 ± 0.11% | 94 ± 0.08% | 97 ± 0.05% | 00% | > 24 h | 12.1 ± 0.42 pg/µg/h | 14.6 ± 0.41 pg/µg/h | 27.8 ± 0.46 pg/µg/h | 45% | 4 h | 4 ± 0.01 pmol/ml/μg prt | 2 ± 0.17 pmol/ml/μg prt | 0 pmol/ml/μg prt | half-life at 2 μM [2]: 2 h; Human Glucagon receptor antagonistic activity shown as inhibition of cAMP production of Glucagon peptide ([9]; 1 μM test compound): 0 pmol/ml/μg prt; Human Glucagon receptor antagonistic activity shown as inhibition of cAMP production of Glucagon peptide ([9]; 10 μM test compound): 0 pmol/ml/μg prt |
| CCc1cc(OC)ccc1-c1ccc(CC(CNC(CCCc2ccccc2F)C(N)=O)NC[C@H](CC(=O)O)NC(=O)[C@H](CO)NC(=O)[C@@H](NC(=O)C(C)(Cc2ccccc2F)NC(=O)[C@@H](NC(=O)CNC(=O)[C@H](CCC(N)=O)NC(=O)C(C)(C)NC(=O)[C@H](Cc2c[nH]cn2)NC(=O)OC)[C@H](C)O)[C@H](C)O)cc1 (single isomer, unassigned) [compound 200] | 81% | 00% | > 24 h | 00% | > 24 h | 55 ± 0.16% | 88 ± 0.13% | 92 ± 0.11% | 99 ± 0.07% | 99 ± 0.09% | 00% | > 24 h | 16.5 ± 0.12 pg/µg/h | 22.7 ± 0.17 pg/µg/h | 36.5 ± 0.05 pg/µg/h | 52% | 4 h | 10 ± 0.16 pmol/ml/μg prt | 8 ± 0.12 pmol/ml/μg prt | 6 ± 0.14 pmol/ml/μg prt | half-life at 2 μM [2]: 2 h; Human Glucagon receptor antagonistic activity shown as inhibition of cAMP production of Glucagon peptide ([9]; 1 μM test compound): 4 ± 0.15 pmol/ml/μg prt; Human Glucagon receptor antagonistic activity shown as inhibition of cAMP production of Glucagon peptide ([9]; 10 μM test compound): 1 ± 0.12 pmol/ml/μg prt |
